The experiment has as its target T1, GlCDK (cyclin-dependent kinase from G. lamblia) (Giardia duodenalis, UniProt A8BZ95).
T1 construct: gene GL50803_008037; monomer in asymmetric unit; residues Ser11-Pro308 observed
T1 sequence (A8BZ95 1-308): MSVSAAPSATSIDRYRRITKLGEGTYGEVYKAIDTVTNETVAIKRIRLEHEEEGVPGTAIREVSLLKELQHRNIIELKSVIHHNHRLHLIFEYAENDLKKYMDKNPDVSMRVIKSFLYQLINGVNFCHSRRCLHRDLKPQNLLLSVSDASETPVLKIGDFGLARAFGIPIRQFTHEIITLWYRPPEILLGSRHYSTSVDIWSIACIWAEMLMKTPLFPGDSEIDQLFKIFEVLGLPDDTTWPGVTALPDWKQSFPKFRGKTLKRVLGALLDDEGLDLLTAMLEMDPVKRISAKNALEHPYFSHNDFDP
Nature of the experiment: X-ray crystal structure, […] A, crystal soak. The conditions noted are these: 1 mM AMP, 1 mM MgCl2, overnight soak; 200 mM sodium/potassium tartrate, 100 mM Bis-Tris propane, 25% PEG 3350; no cyclin; ATP-binding site.

These results are taken from PMC3169406, “Structure of a cyclin-dependent kinase from Giardia lamblia” (Acta Crystallographica Section F: Structural Biology and …, 2011).

Regarding `Nc1ncnc2c1ncn2[C@@H]1O[C@H](COP(=O)(O)O)[C@@H](O)[C@H]1O` [AMP, adenosine monophosphate], the “X-ray crystal structure, 2.0 A, crystal soak” value is recorded as “Good OMIT density was observed for one AMP molecule”.
